Assay results taken from ChEMBL document CHEMBL4041487, “Drug Affinity Responsive Target Stability (DARTS) Identifies Laurifolioside as a New Clathrin Heavy Chain Modulator” (J Nat Prod, 2016).
pIC50: −log10 of the molar value. The source made the active and inactive calls. The calls are words filed in the database; no cut-off is given here.

What was measured:
PC-3 = assay: Antiproliferative activity against human PC3 cells measured after 24 hrs by MTT assay; assay type: functional, cell-based; settings: PC-3, 24 h
MCF7 = assay: Antiproliferative activity against human MCF7 cells measured after 24 hrs by MTT assay; assay type: functional, cell-based; settings: MCF7, 24 h
[1] = target: Clathrin heavy chain 1 (Homo sapiens) (UniProt Q00610); assay: Binding affinity to clathrin heavy chain 1 in human PC3 cells at 20 to 40 uM measured after 2 hrs by DARTS assay; assay type: cell-based
[2] = target: Clathrin heavy chain 1 (Homo sapiens) (UniProt Q00610); assay: Binding affinity to clathrin heavy chain 1 in human MCF7 cells at 20 to 40 uM measured after 2 hrs by DARTS assay; assay type: cell-based
[3] = target: Clathrin heavy chain 1 (Homo sapiens) (UniProt Q00610); assay: Modulation of clathrin heavy chain 1 in human PC3 cells assessed as effect on transferrin endocytosis at 5 to 25 uM pretreated for 15 mins followed by trasnferrin conjugate addition measured after 15 mins by laser scanning confocal microscopic analysis; assay type: cell-based
[4] = target: Clathrin heavy chain 1 (Homo sapiens) (UniProt Q00610); assay: Inhibition of clathrin heavy chain 1 in human PC3 cells assessed as suppression of transferrin internalization at 30 uM pretreated for 15 mins followed by trasnferrin conjugate addition measured after 15 mins by laser scanning confocal microscopic analysis; assay type: cell-based

Sequence of Clathrin heavy chain 1 (Homo sapiens) (Q00610 whole entry): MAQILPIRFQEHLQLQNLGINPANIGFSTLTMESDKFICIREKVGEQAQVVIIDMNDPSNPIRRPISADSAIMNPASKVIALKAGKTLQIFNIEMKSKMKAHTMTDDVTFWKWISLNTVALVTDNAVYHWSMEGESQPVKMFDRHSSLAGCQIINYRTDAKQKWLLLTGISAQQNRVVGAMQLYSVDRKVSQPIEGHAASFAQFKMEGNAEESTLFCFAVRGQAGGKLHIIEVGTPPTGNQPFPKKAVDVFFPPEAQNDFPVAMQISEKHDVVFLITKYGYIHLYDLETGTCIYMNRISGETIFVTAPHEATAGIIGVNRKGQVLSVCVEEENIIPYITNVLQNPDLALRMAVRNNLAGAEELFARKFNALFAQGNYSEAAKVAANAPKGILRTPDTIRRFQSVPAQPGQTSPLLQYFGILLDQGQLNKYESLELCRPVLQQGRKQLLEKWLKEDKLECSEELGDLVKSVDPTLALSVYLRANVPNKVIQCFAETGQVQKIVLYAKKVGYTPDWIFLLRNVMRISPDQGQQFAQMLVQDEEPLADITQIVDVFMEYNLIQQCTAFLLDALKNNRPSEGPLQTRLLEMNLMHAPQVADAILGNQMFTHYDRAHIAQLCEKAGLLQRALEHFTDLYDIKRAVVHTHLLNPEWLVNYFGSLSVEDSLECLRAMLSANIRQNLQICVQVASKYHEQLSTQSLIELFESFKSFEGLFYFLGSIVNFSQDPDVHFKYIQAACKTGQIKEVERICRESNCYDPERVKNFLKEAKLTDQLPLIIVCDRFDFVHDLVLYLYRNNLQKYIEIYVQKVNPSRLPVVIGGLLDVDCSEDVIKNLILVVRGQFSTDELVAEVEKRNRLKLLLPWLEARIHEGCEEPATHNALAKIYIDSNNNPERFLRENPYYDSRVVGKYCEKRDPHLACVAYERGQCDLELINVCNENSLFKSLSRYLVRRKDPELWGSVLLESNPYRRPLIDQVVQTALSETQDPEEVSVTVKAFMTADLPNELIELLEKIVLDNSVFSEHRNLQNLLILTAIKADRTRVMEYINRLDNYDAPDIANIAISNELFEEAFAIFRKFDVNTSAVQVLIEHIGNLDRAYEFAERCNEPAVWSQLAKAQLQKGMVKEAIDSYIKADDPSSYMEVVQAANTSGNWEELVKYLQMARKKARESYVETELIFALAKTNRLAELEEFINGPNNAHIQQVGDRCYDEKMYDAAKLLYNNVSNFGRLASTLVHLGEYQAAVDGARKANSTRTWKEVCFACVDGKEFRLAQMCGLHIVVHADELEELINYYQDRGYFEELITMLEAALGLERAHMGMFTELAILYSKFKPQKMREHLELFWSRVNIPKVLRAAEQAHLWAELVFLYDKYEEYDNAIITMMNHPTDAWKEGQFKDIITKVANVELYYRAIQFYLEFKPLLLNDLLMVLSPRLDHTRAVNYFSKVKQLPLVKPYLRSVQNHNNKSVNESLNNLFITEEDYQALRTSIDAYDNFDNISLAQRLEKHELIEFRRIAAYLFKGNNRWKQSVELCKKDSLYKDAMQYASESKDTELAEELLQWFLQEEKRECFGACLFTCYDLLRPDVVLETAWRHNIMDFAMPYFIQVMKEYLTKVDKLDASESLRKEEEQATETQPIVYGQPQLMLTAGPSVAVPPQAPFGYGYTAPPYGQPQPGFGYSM

| pIC50 (PC-3) | pIC50 (MCF7) | Activity [1] | Activity [2] | Activity [3] | inhibition [4] | SMILES |
| --- | --- | --- | --- | --- | --- | --- |
| 4.60 | 4.49 | Active | Active | Active |  | C/C1=C/C2=C(C(=O)[C@H](C)C2)C(=O)[C@@H](C)C[C@@H]2[C@H](CC1)[C@@]2(C)CO[C@@H]1O[C@H](CO)[C@@H](O)[C@H](O)[C@H]1O |
|  |  |  |  |  | Active | O=C1N=C(NS(=O)(=O)c2cccc3ccccc23)S/C1=C/c1ccc(Br)cc1 |
